Data on two compounds can be found in patent publication US12116421B2, “Peptide-based Dopa containing adhesive gels” (KING ABDULLAH UNIVERSITY OF SCIENCE AND TECHNOLOGY, priority 2020, dated 2024).

Where a SMILES comes first, the peptide text is derived from it. [ ]: non-standard residue; d: D form. Dopa = N[C@@H](Cc1ccc(O)c(O)c1)C(=O)O; Cha = N[C@@H](CC1CCCCC1)C(=O)O

The nature of series [1]: Rheology of peptide hydrogels (storage and loss modulus). It is filed as physicochemical. The settings on record: 15 mg/mL in 1×PBS. The method, then:
In one embodiment, the structural characteristics of these peptides also influence the rheological properties of the peptides, such as stiffness. The stiffness of the peptide hydrogels was assessed by rheology measurements. The five peptides, DoIIZK, IIZDoK, IIZKDo, IIZ(KDo)2 and IIZ(KDo)3 were dispersed in phosphate-buffered saline (1×PBS) to final concentrations of […]. Only DoIIZK and IIZKDo formed transparent hydrogels after preparation of gels onto rheology glass rings; the rest of the peptides formed grey/opaque hydrogels. This difference implies that the fibrils of peptides DoIIZK and IIZKDo had sufficient time to disperse and spread in solution before entrapping water to gel, while peptides IIZDoK, IIZ(KDo)2 and IIZ(KDo)3 gelled quickly upon fibril formation. Therefore, the rheological properties of the peptides were measured at the concentration of 15 mg/ml. […] The storage modulus and loss modulus reflect the stress response of the hydrogel in oscillatory shear. […]
Peptide hydrogels were prepared by weighing the appropriate peptide amount of the lyophilized peptide powder in 2 mL glass-vials. […] Rheological analysis mechanical properties of the formed gels were assessed by using the TA Ares-G2 Rheometer with an 8 mm titanium parallel-plate geometry. […] Time-sweep, frequency-sweep, and amplitude-sweep, were measured for each sample to explore the mechanical stiffness of the gels. […]

Series [2] concerns Acropora hemprichii fragments. Description: Adhesion of bigger coral fragments with IIZKDo glue to tile and 3D printed coral. It is filed as in vivo. The source says: The donor corals Acropora spp. shown in FIG. 36 were collected from the Red Sea.
In one embodiment, IIZKDo was used for the adhesion of bigger and heavier coral fragments to the 3D printed coral, which would be the situation in coral reef restoration. In gluing larger coral fragments, two different type of Acropora hemprichii were glued: some big fragments with an irregular base, and some smaller pieces with smooth base.
In one embodiment, the big fragments with irregular base and the smaller pieces with smooth base were attached to a tile. The cut small pieces of coral were attached to a special sheet for macrofragmentation so that these fragments further grew on the surface of the spreadsheet, in order to obtain fragments with a base smooth enough to stick them on the tile. After 15 days, the big fragments were still fully attached to the tile, whereas the small, flat fragments were all detached.
After verifying the best performing glue among the three DoIIZK, IIZDoK, IIZKDo, IIZKDo was selected to glue some coral fragments onto 3D printed PLA corals used for coral reef restoration project. Using a diagonal plier, the tip of each branch-like part (ca. 1.5-2.5 cm in length) of a donor Acropora hemprichii coral was gently cut to minimize damage to the coral itself. FIG. 36 illustrates the parts being cut from the donor coral. […] The initial donor coral was moved from a large shallow aquarium (230×148×140 cm) supplied with running seawater to a relatively shallow aquarium also outfitted with running seawater. While preparing the glue, the cut fragments were kept in a small shallow aquarium (72×54×29 cm) filled with sea water to not harm them until use. In the meantime, the glue was prepared by mixing IIZKDo 40 mg/mL in water and the mixture was poured on a glass slide and allowed to rest for about 5 minutes to equilibrate, as shown in FIG. 42. The cut coral fragment was removed from the aquarium, and cleaned, while moisture was allowed to absorb from the cut section with sterilized filter paper. The ceramic tile was cleaned twice with water, and then sea water to mimic the adhesion of the glue to a wet, salty surface.
A few drops of IIZKDo was applied at the surface of the cut section of the coral fragment, and the fragment was immediately glued at the surface of the tile, as shown in FIG. 43. As a control, some smaller fragments with smooth surface Acropora hemprichii, were glued using the same peptide-based glue.
The tile with attached coral fragments was placed in the original shallow aquarium (230×148×140 cm) to keep the coral in its natural environment as shown in FIG. 44 and checked after 3 days. Only the big fragments were still sticking on the tile. Therefore, only big fragments were then glued to the 3D printed poly-lactic acid (PLA) printed coral structure primed with MakerBot, which is a 3D printer based on fused deposition modeling method and grew in harsher conditions, such as in the presence of algae etc.

Where [3] appears, read: Big fragments with irregular base, n = 5, tile.
[4] abbreviates: Flat fragments with smooth base, n = 3, tile.

As for `CC[C@H](C)[C@H](NC(C)=O)C(=O)N[C@H](C(=O)N[C@@H](CC1CCCCC1)C(=O)N[C@@H](Cc1ccc(O)c(O)c1)C(=O)N[C@@H](CCCCN)C(N)=O)[C@@H](C)CC` [IIZDoK, Ac-Ile-Ile-Cha-Dopa-Lys-NH2] (Ac-II[Cha][Dopa]K-NH2), in series [1], the “Storage and Loss moduli, times lower than DoIIZK and IIZKDo” value is recorded as “roughly 10 times”. Further, in series [1] (25° C.), the Storage modulus was 2-5 kPa.

In the case of `CC[C@H](C)[C@H](NC(C)=O)C(=O)N[C@H](C(=O)N[C@@H](CC1CCCCC1)C(=O)N[C@@H](CCCCN)C(=O)N[C@@H](Cc1ccc(O)c(O)c1)C(N)=O)[C@@H](C)CC` [IIZKDo, Ac-Ile-Ile-Cha-Lys-Dopa-NH2] (Ac-II[Cha]K[Dopa]-NH2), in series [2] (setting [3]), the “Survival after 15 days in the aquarium” value was determined as 5 and the Survival after attachment turned out to be 5. Also, in series [2] (setting [4]), the “Survival after 15 days in the aquarium” value is 0 and the Survival after attachment turned out to be 3. The “time coral fragments kept glued to a 3D printed substrate” value in series [2] (seawater) is on record as “several months”.
